{"source": "paper PMC5218480", "about": "(PLoS ONE, 2017)", "tested_on": "MV-4-11 cells", "test": "Gene expression microarray analysis (Affymetrix PrimeView) and GSEA", "assay_type": "cell-based, human", "set-up": "RFU PODN (11730768_x_at) / Fold change /veh PODN (11730768_x_at) / RFU LINC00158 (11744669_a_at) / Fold change /veh LINC00158 (11744669_a_at) / RFU DUSP10 (11751237_a_at) / Fold change /veh DUSP10 (11751237_a_at) / RFU ID3 (11757404_x_at) / Fold change /veh ID3 (11757404_x_at) / RFU PLEKHG5 (11737974_s_at) / Fold change /veh PLEKHG5 (11737974_s_at) / RFU LRRC4B (11730491_at) / Fold change /veh LRRC4B (11730491_at) / RFU GIMAP4 (11747438_a_at) / Fold change /veh GIMAP4 (11747438_a_at) / RFU KRT8 (11758183_x_at) / Fold change /veh KRT8 (11758183_x_at) / RFU CNN1 (11734310_a_at) / Fold change /veh CNN1 (11734310_a_at) / RFU VPS37D (11726825_at) / Fold change /veh VPS37D (11726825_at) / RFU C10orf10 (11716522_x_at) / Fold change /veh C10orf10 (11716522_x_at) / RFU KIR2DL2 /// KIR2DL4 /// KIR2DL5A /// KIR2DL5B /// KIR2DS1 /// KIR2DS2 /// KIR2DS3 /// KIR2DS4 /// KIR3DL3 /// KIR3DL3 /// KIR3DS1 (11738374_at) / Fold change /veh KIR2DL2 /// KIR2DL4 /// KIR2DL5A /// KIR2DL5B /// KIR2DS1 /// KIR2DS2 /// KIR2DS3 /// KIR2DS4 /// KIR3DL3 /// KIR3DL3 /// KIR3DS1 (11738374_at) / RFU C1QL1 (11718748_at) / Fold change /veh C1QL1 (11718748_at) / RFU TMPRSS4 (11747572_a_at) / Fold change /veh TMPRSS4 (11747572_a_at) / RFU HAMP (11756126_x_at) / Fold change /veh HAMP (11756126_x_at) / RFU RNFT2 (11725882_a_at) / Fold change /veh RNFT2 (11725882_a_at) / RFU NR4A2 (11747474_a_at) / Fold change /veh NR4A2 (11747474_a_at) / RFU ABCC12 (11746883_a_at) / Fold change /veh ABCC12 (11746883_a_at) / RFU TMEM136 (11760407_x_at) / Fold change /veh TMEM136 (11760407_x_at) / RFU CLDN22 /// WWC2 (11732394_at) / Fold change /veh CLDN22 /// WWC2 (11732394_at) / RFU HLA-DPB1 (11760878_x_at) / Fold change /veh HLA-DPB1 (11760878_x_at) / RFU SPINT1 (11716480_a_at) / Fold change /veh SPINT1 (11716480_a_at) / RFU GAP43 (11754022_s_at) / Fold change /veh GAP43 (11754022_s_at) / RFU A4GNT (11735810_at) / Fold change /veh A4GNT (11735810_at) / RFU PRB3 (11715151_x_at) / Fold change /veh PRB3 (11715151_x_at) / RFU TUBB4B (11761932_at) / Fold change /veh TUBB4B (11761932_at) / RFU CAPN14 (11732068_a_at) / Fold change /veh CAPN14 (11732068_a_at) / RFU TMCC2 (11721928_a_at) / Fold change /veh TMCC2 (11721928_a_at) / RFU IRGQ (11745062_a_at) / Fold change /veh IRGQ (11745062_a_at) / RFU FAM174B (11720279_a_at) / Fold change /veh FAM174B (11720279_a_at) / RFU TMPRSS4 (11748680_a_at) / Fold change /veh TMPRSS4 (11748680_a_at) / RFU FAM212B (11763350_a_at) / Fold change /veh FAM212B (11763350_a_at) / RFU PLEKHG5 (11743358_a_at) / Fold change /veh PLEKHG5 (11743358_a_at) / RFU ZSCAN30 (11745921_a_at) / Fold change /veh ZSCAN30 (11745921_a_at) / RFU CMKLR1 (11741424_a_at) / Fold change /veh CMKLR1 (11741424_a_at) / RFU LOC101060620 /// MAPK8IP1 (11723275_at) / Fold change /veh LOC101060620 /// MAPK8IP1 (11723275_at) / RFU SPTSSB (11747773_x_at) / Fold change /veh SPTSSB (11747773_x_at) / RFU PRSS12 (11739890_at) / Fold change /veh PRSS12 (11739890_at) / RFU BIN1 (11741810_x_at) / Fold change /veh BIN1 (11741810_x_at) / RFU WNT11 (11732464_a_at) / Fold change /veh WNT11 (11732464_a_at) / RFU C10orf10 (11716521_a_at) / Fold change /veh C10orf10 (11716521_a_at) / RFU C5orf56 (11738089_at) / Fold change /veh C5orf56 (11738089_at) / RFU CYB561 (11721691_x_at) / Fold change /veh CYB561 (11721691_x_at) / RFU ANKRD19P (11752326_a_at) / Fold change /veh ANKRD19P (11752326_a_at) / RFU OR2T12 /// OR2T33 /// OR2T8 (11738714_s_at) / Fold change /veh OR2T12 /// OR2T33 /// OR2T8 (11738714_s_at) / RFU VCAN (11748164_a_at) / Fold change /veh VCAN (11748164_a_at) / RFU JSRP1 (11732532_at) / Fold change /veh JSRP1 (11732532_at) / RFU KRTAP10-11 (11738290_x_at) / Fold change /veh KRTAP10-11 (11738290_x_at) / RFU MYO3A (11730013_a_at) / Fold change /veh MYO3A (11730013_a_at) / RFU EBF3 (11725865_a_at) / Fold change /veh EBF3 (11725865_a_at) / RFU CAMK2N1 (11719241_x_at) / Fold change /veh CAMK2N1 (11719241_x_at) / RFU C5orf56 (11738088_a_at) / Fold change /veh C5orf56 (11738088_a_at) / RFU OLFML3 (11715873_a_at) / Fold change /veh OLFML3 (11715873_a_at) / RFU LOC100653217 /// NTM (11731650_a_at) / Fold change /veh LOC100653217 /// NTM (11731650_a_at) / RFU MAPK11 (11762145_a_at) / Fold change /veh MAPK11 (11762145_a_at) / RFU FIZ1 (11724087_x_at) / Fold change /veh FIZ1 (11724087_x_at) / RFU OASL (11726364_x_at) / Fold change /veh OASL (11726364_x_at) / RFU SOX15 (11748057_x_at) / Fold change /veh SOX15 (11748057_x_at) / RFU CD79A (11719716_a_at) / Fold change /veh CD79A (11719716_a_at) / RFU HIST1H1D (11736915_at) / Fold change /veh HIST1H1D (11736915_at) / RFU CASKIN2 (11723855_a_at) / Fold change /veh CASKIN2 (11723855_a_at) / RFU LOC730098 (11760151_x_at) / Fold change /veh LOC730098 (11760151_x_at) / RFU OR4N2 (11742367_at) / Fold change /veh OR4N2 (11742367_at) / RFU PRRT2 (11749266_a_at) / Fold change /veh PRRT2 (11749266_a_at) / RFU SNX32 (11753110_a_at) / Fold change /veh SNX32 (11753110_a_at) / RFU CDHR5 (11726645_a_at) / Fold change /veh CDHR5 (11726645_a_at) / RFU RCAN1 (11760418_a_at) / Fold change /veh RCAN1 (11760418_a_at) / RFU FAM167A (11723789_a_at) / Fold change /veh FAM167A (11723789_a_at) / RFU FAM26E (11764081_at) / Fold change /veh FAM26E (11764081_at) / RFU ISYNA1 (11749810_s_at) / Fold change /veh ISYNA1 (11749810_s_at) / RFU ACY1 (11761880_at) / Fold change /veh ACY1 (11761880_at) / RFU 11764098_at / Fold change /veh 11764098_at / RFU SAMD14 (11745864_x_at) / Fold change /veh SAMD14 (11745864_x_at) / RFU NPB (11741838_a_at) / Fold change /veh NPB (11741838_a_at) / RFU TMPRSS6 (11731388_a_at) / Fold change /veh TMPRSS6 (11731388_a_at) / RFU KRTAP10-2 (11738614_at) / Fold change /veh KRTAP10-2 (11738614_at) / RFU ARHGAP8 /// PRR5-ARHGAP8 (11727945_x_at) / Fold change /veh ARHGAP8 /// PRR5-ARHGAP8 (11727945_x_at) / RFU KRTAP5-7 /// NADSYN1 (11734609_at) / Fold change /veh KRTAP5-7 /// NADSYN1 (11734609_at) / RFU RASL12 (11751679_a_at) / Fold change /veh RASL12 (11751679_a_at) / RFU CDKN2B (11736163_a_at) / Fold change /veh CDKN2B (11736163_a_at) / RFU PRF1 (11729649_at) / Fold change /veh PRF1 (11729649_at) / RFU, ZNF638 /// ZNF638-IT1 / Fold change vs veh, ZNF638 /// ZNF638-IT1 / RFU, PANK3 / Fold change vs veh, PANK3 / RFU, SH3YL1 / Fold change vs veh, SH3YL1 / RFU, ZEB2 / Fold change vs veh, ZEB2 / RFU, NRIP1 / Fold change vs veh, NRIP1 / RFU, PTTG1IP / Fold change vs veh, PTTG1IP / RFU, CAPN2 / Fold change vs veh, CAPN2 / RFU, MED14 / Fold change vs veh, MED14 / RFU, SNORA58 / Fold change vs veh, SNORA58 / RFU, C1orf63 / Fold change vs veh, C1orf63 / RFU, LRRFIP1 / Fold change vs veh, LRRFIP1 / RFU, NDUFAF7 / Fold change vs veh, NDUFAF7 / RFU, SLC12A2 / Fold change vs veh, SLC12A2 / RFU, IBTK / Fold change vs veh, IBTK / RFU, ESF1 / Fold change vs veh, ESF1 / Fold change vs veh, TMEM50B / RFU, TAOK1 / Fold change vs veh, TAOK1 / RFU, ACBD3 / Fold change vs veh, ACBD3 / RFU, TMA16 / Fold change vs veh, TMA16 / RFU, RWDD3 / Fold change vs veh, RWDD3 / RFU, BCAT1 / Fold change vs veh, BCAT1 / RFU, EDEM3 / Fold change vs veh, EDEM3 / RFU, TMEM33 / Fold change vs veh, TMEM33 / RFU, WDR75 / Fold change vs veh, WDR75 / RFU, AHCTF1 / Fold change vs veh, AHCTF1 / RFU, TFRC / Fold change vs veh, TFRC / RFU, ZDHHC17 / Fold change vs veh, ZDHHC17 / RFU, NOM1 / Fold change vs veh, NOM1 / RFU, ARL8B / Fold change vs veh, ARL8B / RFU, ZBTB11 / Fold change vs veh, ZBTB11 / RFU, TAMM41 / Fold change vs veh, TAMM41 / RFU, KIAA1704 /// LOC100996395 / Fold change vs veh, KIAA1704 /// LOC100996395 / RFU, ING1 / Fold change vs veh, ING1 / RFU, TRMT61B / Fold change vs veh, TRMT61B / RFU, FUBP3 / Fold change vs veh, FUBP3 / RFU, TP53 / Fold change vs veh, TP53 / RFU, TNKS2 / Fold change vs veh, TNKS2 / RFU, ZFP14 / Fold change vs veh, ZFP14 / RFU, ACTR2 / Fold change vs veh, ACTR2 / RFU, PPP3R1 / Fold change vs veh, PPP3R1 / RFU, PIK3R1 / Fold change vs veh, PIK3R1 / RFU, HNRNPA1 / Fold change vs veh, HNRNPA1 / RFU, RNF170 / Fold change vs veh, RNF170 / RFU, ZNF28 / Fold change vs veh, ZNF28 / RFU, RNGTT / Fold change vs veh, RNGTT / RFU, OGT / Fold change vs veh, OGT / RFU, BRD1 / Fold change vs veh, BRD1 / RFU, MARS / Fold change vs veh, MARS / RFU, ZNF655 / Fold change vs veh, ZNF655 / RFU, FAHD1 / Fold change vs veh, FAHD1 / RFU, BDP1 / Fold change vs veh, BDP1 / RFU, LRRCC1 / Fold change vs veh, LRRCC1 / RFU, ARID1A / Fold change vs veh, ARID1A / RFU, ZNF146 / Fold change vs veh, ZNF146 / RFU, ZNF330 / Fold change vs veh, ZNF330 / RFU, GPN3 / Fold change vs veh, GPN3 / RFU, C9orf123 / Fold change vs veh, C9orf123 / RFU, N4BP2L2 / Fold change vs veh, N4BP2L2 / RFU, ARFIP1 / Fold change vs veh, ARFIP1 / RFU, FAM179B / Fold change vs veh, FAM179B / RFU, BCL10 / Fold change vs veh, BCL10 / RFU, UHRF1BP1L / Fold change vs veh, UHRF1BP1L / RFU, BET1 / Fold change vs veh, BET1 / RFU, CNOT2 / Fold change vs veh, CNOT2 / RFU, ZNF268 / Fold change vs veh, ZNF268 / Fold change vs veh, ZNF507 / RFU, DGCR2 / Fold change vs veh, DGCR2 / RFU, WDSUB1 / Fold change vs veh, WDSUB1 / Fold change vs veh, HSP90B1 /// MIR3652 / RFU, ADSS / Fold change vs veh, ADSS / RFU, GK / Fold change vs veh, GK / RFU, ZNF148 / Fold change vs veh, ZNF148 / RFU, TAF9 / Fold change vs veh, TAF9 / RFU, SLC1A5 / Fold change vs veh, SLC1A5 / RFU, SLMO2 / Fold change vs veh, SLMO2 / RFU, ABCC4 / Fold change vs veh, ABCC4 / RFU, LOC101060439 /// RAP1B / Fold change vs veh, LOC101060439 /// RAP1B / RFU, RFX7 / Fold change vs veh, RFX7 / RFU, GTPBP10 / Fold change vs veh, GTPBP10 / RFU, CNEP1R1 / Fold change vs veh, CNEP1R1 / RFU, BIVM-ERCC5 /// ERCC5 / Fold change vs veh, BIVM-ERCC5 /// ERCC5 / RFU, ILF3 / Fold change vs veh, ILF3 / RFU 11762660_at / Fold change /veh 11762660_at / RFU VCAN (11757783_s_at) / Fold change /veh VCAN (11757783_s_at) / RFU DDX43 (11728927_at) / Fold change /veh DDX43 (11728927_at) / RFU KRT8 (11758188_x_at) / Fold change /veh KRT8 (11758188_x_at) / RFU NKD1 (11759106_at) / Fold change /veh NKD1 (11759106_at) / RFU SRD5A1 (11742802_a_at) / Fold change /veh SRD5A1 (11742802_a_at) / RFU TPSAB1 /// TPSB2 (11721975_s_at) / Fold change /veh TPSAB1 /// TPSB2 (11721975_s_at) / RFU GSTM3 (11746129_a_at) / Fold change /veh GSTM3 (11746129_a_at) / RFU IL23R (11737362_x_at) / Fold change /veh IL23R (11737362_x_at) / RFU TMEM51 (11727254_a_at) / Fold change /veh TMEM51 (11727254_a_at) / RFU PIWIL2 (11732686_x_at) / Fold change /veh PIWIL2 (11732686_x_at) / RFU ORM1 (11744905_x_at) / Fold change /veh ORM1 (11744905_x_at) / RFU CCDC152 (11743942_at) / Fold change /veh CCDC152 (11743942_at) / RFU ECM1 (11717891_a_at) / Fold change /veh ECM1 (11717891_a_at) / RFU IL23R (11748794_a_at) / Fold change /veh IL23R (11748794_a_at) / RFU TNFAIP8L3 (11732012_x_at) / Fold change /veh TNFAIP8L3 (11732012_x_at) / RFU MBOAT4 (11741988_at) / Fold change /veh MBOAT4 (11741988_at) / RFU 11764193_at / Fold change /veh 11764193_at / RFU TMEM53 (11763286_at) / Fold change /veh TMEM53 (11763286_at) / RFU MAGEB2 (11727129_at) / Fold change /veh MAGEB2 (11727129_at) / RFU TMEM200A (11744735_a_at) / Fold change /veh TMEM200A (11744735_a_at) / RFU CCDC152 (11751479_a_at) / Fold change /veh CCDC152 (11751479_a_at) / RFU FAM211A (11726209_a_at) / Fold change /veh FAM211A (11726209_a_at) / RFU RGS16 (11746705_a_at) / Fold change /veh RGS16 (11746705_a_at) / RFU VCAN (11755009_s_at) / Fold change /veh VCAN (11755009_s_at) / RFU RHOB (11743442_s_at) / Fold change /veh RHOB (11743442_s_at) / RFU RGS16 (11720943_a_at) / Fold change /veh RGS16 (11720943_a_at) / RFU RGS16 (11720944_at) / Fold change /veh RGS16 (11720944_at) / RFU, VPS4B / Fold change vs veh, VPS4B / RFU, CREB1 / Fold change vs veh, CREB1 / RFU, DNAJC13 / Fold change vs veh, DNAJC13 / RFU, GNAQ / Fold change vs veh, GNAQ / RFU, CDK5R1 / Fold change vs veh, CDK5R1 / RFU, ZRANB3 / Fold change vs veh, ZRANB3 / RFU, CUL4A / Fold change vs veh, CUL4A / RFU, CCNY / Fold change vs veh, CCNY / RFU, UFL1 / Fold change vs veh, UFL1 / RFU, COG3 / Fold change vs veh, COG3 / RFU, DIAPH2 / Fold change vs veh, DIAPH2 / RFU, SKA2 / Fold change vs veh, SKA2 / RFU, AFF3 / Fold change vs veh, AFF3 / RFU, LMF1 / Fold change vs veh, LMF1 / RFU, IPO11 / Fold change vs veh, IPO11 / RFU, DFFB / Fold change vs veh, DFFB / RFU, FOXP1 / Fold change vs veh, FOXP1 / RFU, CARD8 / Fold change vs veh, CARD8 / RFU, STRN3 / Fold change vs veh, STRN3 / RFU, ADK / Fold change vs veh, ADK / RFU, RASSF2 / Fold change vs veh, RASSF2 / RFU, WIPF1 / Fold change vs veh, WIPF1 / RFU, LARP1B / Fold change vs veh, LARP1B / RFU, RASA1 / Fold change vs veh, RASA1 / RFU, RB1 / Fold change vs veh, RB1 / RFU, PPFIA1 / Fold change vs veh, PPFIA1 / RFU, MAT2A / Fold change vs veh, MAT2A / RFU, CCT5 / Fold change vs veh, CCT5 / RFU, WDR92 / Fold change vs veh, WDR92 / RFU, CUX1 / Fold change vs veh, CUX1 / RFU, TTC7A / Fold change vs veh, TTC7A / RFU, TMEM135 / Fold change vs veh, TMEM135 / RFU, DEPTOR / Fold change vs veh, DEPTOR / RFU, CPM / Fold change vs veh, CPM / RFU, DNAJB6 / Fold change vs veh, DNAJB6 / RFU, CACNA2D3 / Fold change vs veh, CACNA2D3 / RFU, DTX4 / Fold change vs veh, DTX4 / RFU, TFCP2 / Fold change vs veh, TFCP2 / RFU, GMCL1 /// GMCL1P1 / Fold change vs veh, GMCL1 /// GMCL1P1 / RFU, AEBP2 / Fold change vs veh, AEBP2 / RFU, SNHG1 /// SNORD22 /// SNORD25 /// SNORD26 /// SNORD27 /// SNORD28 /// SNORD29 /// SNORD31 / Fold change vs veh, SNHG1 /// SNORD22 /// SNORD25 /// SNORD26 /// SNORD27 /// SNORD28 /// SNORD29 /// SNORD31 / Fold change (Aza/veh), C12orf56 (ProbeSet 11735607_a_at) / Fold change (ACY-1035/veh), C12orf56 (ProbeSet 11735607_a_at) / Fold change (Aza/veh), FGFR1OP (ProbeSet 11751329_s_at) / Fold change (ACY-1035/veh), FGFR1OP (ProbeSet 11751329_s_at) / Fold change (Aza/veh), VPS36 (ProbeSet 11739960_a_at) / Fold change (ACY-1035/veh), VPS36 (ProbeSet 11739960_a_at) / RFU SYPL1 (11715823_x_at) / Fold change /veh SYPL1 (11715823_x_at) / RFU IGFBP7 (11715501_s_at) / Fold change /veh IGFBP7 (11715501_s_at) / RFU REEP3 (11722064_at) / Fold change /veh REEP3 (11722064_at) / RFU IGLL1 (11728026_x_at) / Fold change /veh IGLL1 (11728026_x_at): dose or concentration left out as unconfirmed", "conditions": "ProbeSet 11728879_at; LIST B"}
{"smiles": "Nc1ccc(-c2cccs2)cc1NC(=O)c1ccc2c(c1)cc(C1CC1)n2CCN1CCOCC1", "note": "[ACY-1035]", "values": [{"measurement": "Fold change vs veh, PPP3R1", "value": 0.99}]}
